pEC50, pIC50: −log10 of the molar value.
Tests used:
[1] = system: Human immunodeficiency virus 1; assay: Antiviral activity against recombinant HIV1 NLRep-Rluc harbouring polymorphic T124/T125 integrase infected in human MT-2 cells assessed as inhibition of virus growth in presence of fetal bovine serum by measuring luciferase activity after 5 days; assay type: functional, organism-based, MT2
[2] = Displacement of [3H](S)-2-(tert-butoxy)-2-(2-methyl-4-(p-tolyl)quinolin-3-yl)acetic acid from LEDGF-binding site of recombinant T124/T125 polymorphic HIV1 integrase by LIDIA assay; set-up: species or system Human immunodeficiency virus 1
[3] = Cytotoxicity against human MT2 cells assessed as cell viability measured after 4 days by XTT assay; assay type: toxicity, cell-based; conditions: time 4 day
[4] = system: Human immunodeficiency virus 1; assay: Antiviral activity against recombinant HIV1 A128T-resitant mutant […] infected in human MT-2 cells assessed as inhibition of virus growth in presence of fetal bovine serum by measuring luciferase activity after 5 days; assay type: functional, organism-based; conditions: Human immunodeficiency virus 1, MT2, 120 h
[5] = system: Human immunodeficiency virus 1; assay: Antiviral activity against recombinant HIV1 NLRep-Rluc harbouring polymorphic AA infected in human MT-2 cells assessed as inhibition of virus growth in presence of fetal bovine serum by measuring luciferase activity after 5 days; assay type: functional, organism-based; conditions: Human immunodeficiency virus 1, NLRep, MT2, 120 h
[6] = Metabolic stability in human liver microsome assessed half life at 0.5 uM by LC-MS/MS analysis; assay type: ADME; conditions: liver microsomes
[7] = system: Human immunodeficiency virus 1; assay: Antiviral activity against recombinant HIV1 NLRep-Rluc harbouring polymorphic NT infected in human MT-2 cells assessed as inhibition of virus growth in presence of fetal bovine serum by measuring luciferase activity after 5 days; assay type: functional, organism-based; conditions: Human immunodeficiency virus 1, NLRep, MT2, 120 h
[8] = Clearance in Sprague-Dawley rat at 1 mg/kg, iv by LC-MS/MS analysis; assay type: ADME, organism-based; conditions: in vivo
[9] = system: Human immunodeficiency virus 1; assay: Antiviral activity against recombinant HIV1 NLRep-Rluc harbouring polymorphic TA infected in human MT-2 cells assessed as inhibition of virus growth in presence of fetal bovine serum by measuring luciferase activity after 5 days; assay type: functional, organism-based; conditions: Human immunodeficiency virus 1, NLRep, MT2, 120 h
[10] = system: Human immunodeficiency virus 1; assay: Antiviral activity against recombinant HIV1 NLRep-Rluc harbouring polymorphic AT infected in human MT-2 cells assessed as inhibition of virus growth in presence of fetal bovine serum by measuring luciferase activity after 5 days; assay type: functional, organism-based; conditions: Human immunodeficiency virus 1, NLRep, MT2, 120 h
[11] = Metabolic stability in rat liver microsome assessed half life at 0.5 uM by LC-MS/MS analysis; assay type: ADME; conditions: liver microsomes
[12] = system: Human immunodeficiency virus 1; assay: Antiviral activity against recombinant HIV1 NLRep-Rluc harbouring polymorphic NA infected in human MT-2 cells assessed as inhibition of virus growth in presence of fetal bovine serum by measuring luciferase activity after 5 days; assay type: functional, organism-based; conditions: Human immunodeficiency virus 1, NLRep, MT2, 120 h
[13] = system: Human immunodeficiency virus 1; assay: Anti retroviral activity against HIV-1 NL4-3 harboring at TT polymorph infected in human MT4 cells by CellTitre-Glo luminescent reagent based assay; assay type: functional, organism-based; conditions: Human immunodeficiency virus 1, NL4-3, MT4
[14] = system: Human immunodeficiency virus 1; assay: Anti retroviral activity against HIV-1 NL4-3 harboring at AA polymorph infected in human MT4 cells by CellTitre-Glo luminescent reagent based assay; assay type: functional, organism-based; conditions: Human immunodeficiency virus 1, NL4-3, MT4
[15] = system: Human immunodeficiency virus 1; assay: Anti retroviral activity against HIV-1 NL4-3 harboring at TA polymorph infected in human MT4 cells by CellTitre-Glo luminescent reagent based assay; assay type: functional, organism-based; conditions: Human immunodeficiency virus 1, NL4-3, MT4
[16] = system: Human immunodeficiency virus 1; assay: Anti retroviral activity against HIV-1 NL4-3 harboring at AT polymorph infected in human MT4 cells by CellTitre-Glo luminescent reagent based assay; assay type: functional, organism-based; conditions: Human immunodeficiency virus 1, NL4-3, MT4
[17] = Human immunodeficiency virus 1, NLRep, MT2, 120 h

SMILES | pEC50 [1, 17] | pIC50 [2] | CC50 at 96 h [3] [nM] | half-life at 0.5 µM [6] [h] | clearance [8] [mL/min/kg] | half-life at 0.5 µM [11] [h] | also measured
Cc1nc(C)c([C@H](OC(C)(C)C)C(=O)O)c(N2CCC(C)(C)CC2)c1-c1ccc(Cc2ccccc2)cc1 | 7.91 | 7.87 | ≥ 20000 |  |  |  | 
Cc1ncsc1CCOc1ccc(-c2c(C)nc(C)c([C@H](OC(C)(C)C)C(=O)O)c2N2CCC(C)(C)CC2)cc1 | 9.10 | 7.90 | ≥ 25000 | 1.5 | 69 | > 2 | pEC50 [4]: 6.97; pEC50 [5]: 9.15; pEC50 [7]: 9.00; pEC50 [9]: 9.12; pEC50 [10]: 9.00; pEC50 [12]: 8.89
COc1ccc(CCOc2ccc(-c3c(C)nc(C)c([C@H](OC(C)(C)C)C(=O)O)c3N3CCC(C)(C)CC3)cc2)cc1 | 8.41 | 7.88 | ≥ 33500 | > 2 | 13.4 | > 2 | 
Cc1nc(C)c([C@H](OC(C)(C)C)C(=O)O)c(N2CCC(C)(C)CC2)c1-c1ccc(OCCc2ccc(F)cc2F)cc1 | 8.44 | 7.94 | ≥ 33500 | 1.08 | 9 | > 2 | 
Cc1ccc(CCOc2ccc(-c3c(C)nc(C)c([C@H](OC(C)(C)C)C(=O)O)c3N3CCC(C)(C)CC3)cc2)cc1 | 7.83 | 7.81 | ≥ 33500 |  |  |  | 
Cc1nc(C)c([C@H](OC(C)(C)C)C(=O)O)c(N2CCC(C)(C)CC2)c1-c1ccc(NCCc2ccc(F)cc2)cc1 | 8.27 | 7.74 | ≥ 32000 | 0.683 | 12 | 1.83 | 
Cc1noc(C)c1CCOc1ccc(-c2c(C)nc(C)c([C@H](OC(C)(C)C)C(=O)O)c2N2CCC(C)(C)CC2)cc1 | 8.82 | 7.94 | ≥ 25000 | 0.467 | 58.9 | 1.32 | 
Cc1nc(C)c([C@H](OC(C)(C)C)C(=O)O)c(N2CCC(C)(C)CC2)c1-c1ccc(SCCc2ccc(F)cc2)cc1 | 7.81 | 7.01 | ≥ 32000 | > 2 |  | > 2 | 
Cc1nc(C)c([C@H](OC(C)(C)C)C(=O)O)c(N2CCC(C)(C)CC2)c1-c1ccc(Oc2ccccc2)cc1 | 7.43 | 7.27 | ≥ 20000 |  |  |  | 
Cc1nc(C)c([C@H](OC(C)(C)C)C(=O)O)c(N2CCC(C)(C)CC2)c1-c1ccccc1 | 7.17 | 7.26 |  |  |  |  | 
Cc1nc(C)c([C@H](OC(C)(C)C)C(=O)O)c(N2CCC(C)(C)CC2)c1-c1ccc(OCCc2ccncc2)cc1 | 9.22 |  | ≥ 25000 |  |  |  | 
Cc1nc(C)c([C@H](OC(C)(C)C)C(=O)O)c(N2CCC(C)(C)CC2)c1-c1ccc(OCCc2ccc(Cl)cc2)cc1 | 7.92 | 7.52 | ≥ 33500 |  |  |  | 
Cc1nc(C)c([C@H](OC(C)(C)C)C(=O)O)c(N2CCC(C)(C)CC2)c1-c1ccc(OCCc2ccc(F)c(F)c2)cc1 | 8.57 | 8.17 | ≥ 33500 | > 2 | 5.8 | 0.85 | pEC50 [4]: 6.59; pEC50 [5]: 8.43; pEC50 [7]: 8.68; pEC50 [9]: 8.74; pEC50 [10]: 8.57; pEC50 [12]: 8.15
COc1cccc(CCOc2ccc(-c3c(C)nc(C)c([C@H](OC(C)(C)C)C(=O)O)c3N3CCC(C)(C)CC3)cc2)c1 | 8.77 | 7.80 | ≥ 33500 | > 2 |  | > 2 | 
Cc1nc(C)c([C@H](OC(C)(C)C)C(=O)O)c(N2CCC(C)(C)CC2)c1-c1ccc(OCCCc2ccc(F)cc2)cc1 | 7.92 | 7.45 | ≥ 32000 | > 2 |  | > 2 | 
Cc1sc(-c2ccncc2)c(C2=CCC(C)(C)CC2)c1[C@H](OC(C)(C)C)C(=O)O |  |  |  |  |  |  | pEC50 [13]: 7.51; pEC50 [14]: 5.82; pEC50 [15]: 5.80; pEC50 [16]: 4.85

SMILES | pEC50 [1, 17] | pIC50 [2] | CC50 at 96 h [3] [nM] | half-life at 0.5 µM [6] [h] | clearance [8] [mL/min/kg] | half-life at 0.5 µM [11] [h] | also measured
Cc1nc(C)c([C@H](OC(C)(C)C)C(=O)O)c(N2CCC(C)(C)CC2)c1-c1ccc(OCCc2ccccn2)cc1 | 9.05 | 7.78 | ≥ 25000 | 0.5 |  | 1.02 | 
Cc1cc(CCOc2ccc(-c3c(C)nc(C)c([C@H](OC(C)(C)C)C(=O)O)c3N3CCC(C)(C)CC3)cc2)ccc1F | 8.32 | 7.68 | ≥ 33500 | > 2 | 7.8 | > 2 | 
Cc1nc(CCOc2ccc(-c3c(C)nc(C)c([C@H](OC(C)(C)C)C(=O)O)c3N3CCC(C)(C)CC3)cc2)cs1 | 8.30 | 7.49 | ≥ 25000 | 0.683 |  | 1.75 | 
Cc1ccc(CCOc2ccc(-c3c(C)nc(C)c([C@H](OC(C)(C)C)C(=O)O)c3N3CCC(C)(C)CC3)cc2)s1 | 8.36 | 7.31 | ≥ 25000 | > 2 |  | > 2 | 
Cc1nc(C)c([C@H](OC(C)(C)C)C(=O)O)c(N2CCC(C)(C)CC2)c1-c1ccc(OCCc2cc(F)c(F)cc2F)cc1 | 8.48 | 7.74 | ≥ 33500 | > 2 | 8.1 | > 2 | 
Cc1nc(C)c(CCOc2ccc(-c3c(C)nc(C)c([C@H](OC(C)(C)C)C(=O)O)c3N3CCC(C)(C)CC3)cc2)s1 | 8.96 | 7.93 | ≥ 25000 | 0.917 | 30.1 | > 2 | 
Cc1nc(C)c([C@H](OC(C)(C)C)C(=O)O)c(N2CCC(C)(C)CC2)c1-c1ccc(-c2ccccc2)cc1 | 7.51 | 7.51 | ≥ 20000 |  |  |  | 
Cc1nc(C)c([C@H](OC(C)(C)C)C(=O)O)c(N2CCC(C)(C)CC2)c1-c1ccc(OCCc2ccccc2)cc1 | 8.64 | 8.03 | ≥ 20000 | > 2 |  | > 2 | 
Cc1nc(C)c([C@H](OC(C)(C)C)C(=O)O)c(N2CCC(C)(C)CC2)c1-c1ccc(CCCc2ccc(F)cc2)cc1 | 7.65 | 7.13 | ≥ 32000 | > 2 |  | > 2 | 
Cc1nc(C)c([C@H](OC(C)(C)C)C(=O)O)c(N2CCC(C)(C)CC2)c1-c1ccc(OCc2ccccc2)cc1 | 7.95 | 7.52 | ≥ 20000 |  |  |  | 
Cc1nc(C)c([C@H](OC(C)(C)C)C(=O)O)c(N2CCC(C)(C)CC2)c1-c1ccc(OCCc2cc(F)ccc2F)cc1 | 8.55 | 7.83 | ≥ 33500 |  | 18.7 |  | 
Cc1nc(C)c([C@H](OC(C)(C)C)C(=O)O)c(N2CCC(C)(C)CC2)c1-c1ccc(OCCc2cccnc2)cc1 | 8.89 | 7.71 | ≥ 25000 | 0.367 |  | 0.783 | 
CCc1cccc(CC)c1-c1cc(-c2ccc3c4c(ccnc24)CCO3)c(C(OC(C)(C)C)C(=O)O)c(C)n1 (racemic) | 6.72 | 4.00 |  |  |  |  | 
Cc1nc(C)c([C@H](OC(C)(C)C)C(=O)O)c(N2CCC(C)(C)CC2)c1-c1ccc(OC2CCCC2c2ccc(F)cc2)cc1 (stereo in doubt; 39a) |  | 7.45 | ≥ 32000 |  |  |  | pEC50 ([1]; mt2): 7.92
Cc1nc(C)c([C@H](OC(C)(C)C)C(=O)O)c(N2CCC(C)(C)CC2)c1-c1ccc(OC2CCCC2c2ccc(F)cc2)cc1 (stereo in doubt; 39b) |  | 7.75 |  |  |  |  | pEC50 ([1]; mt2): 8.30
Cc1nc(C)c([C@H](OC(C)(C)C)C(=O)O)c(N2CCC(C)(C)CC2)c1-c1ccc(OC2COCC2c2ccc(F)cc2)cc1 (stereo in doubt; 40a) |  | 8.31 | ≥ 32000 |  |  |  | pEC50 ([1]; mt2): 8.70

Reference: ChEMBL document CHEMBL5046290, “Design, Synthesis, and Preclinical Profiling of GSK3739936 (BMS-986180), an Allosteric Inhibitor of HIV-1 Integrase with Broad-Spectrum Activity toward 124/125 Polymorphs” (J Med Chem, 2022)
